Tests used:
primary human B cells = assay: B cell activation assay (CD69 on anti-IgM stimulated B cells); type: cell-based; settings: AUC of dose response curve (10 μM to 1 nM) of CD69 MFI normalized to DMSO control
Protocol: Peripheral blood mononuclear cells (PBMC) were obtained either: 1) by using Ficoll-Paque™ (GE Healthcare) for separation of peripheral blood hematopoietic cells from buffy coats of healthy human donors; or 2) directly from LeukoPak donations. Human primary B cells were isolated from the PBMCs utilizing negative selection with commercial kits following the manufacturer's protocol (StemCells Catalog #17954) to yield >95% CD20+ cells assessed by flow cytometry. Primary human B cells were plated at 0.7-1×10^5 per well in a 96-well plate with Cbl-b inhibitors over a dose ranging from 10 μM to 1 nM and incubated at 37° C. 5% CO2, with a final DMSO concentration of <0.5%. Cells were stimulated with anti-IgM for 20 hours at 37° C. 5% CO2. Surface activation markers on mature CD20^+ IgD^+ B cells were monitored by FACS using an anti-CD69 antibody (BD Biosciences).
Cbl-b inhibitors were tested to determine their ability to induce or enhance surface expression of cell surface markers on B cells (e.g., CD69), which is indicative of B cell activation.
Readouts were reported as area under curve (AUC) of the dose response curve of CD69 mean fluorescence intensity (MFI) normalized to the DMSO control. Baseline for this study was the measurement obtained from primary human B cells treated with DMSO in the presence of 2.5 μg/mL of anti-IgM-F(ab′)2. […] Compounds were ranked into bins according to their readouts as follows: A indicates ≤0.5, B indicates 0.5-1.00, C indicates 1.01-1.50, and D indicates ≥1.51.

T-cells = assay: In vivo activity: CD25 expression on CD4+ or CD8+ T-cells of mice stimulated with anti-CD3 antibody; settings: 2 μg anti-CD3 antibody, 24 hours
Protocol: (§1) A method of determining the pharmacodynamic profile of Cbl-b inhibitors was performed by dosing strains of mice with competent immune systems such as C57BL/6 or BALB/c with a Cbl-b inhibitor. The Cbl-b inhibitor was dissolved in a suitable formulation and administered by one of various routes such as intravenous (IV), intraperitoneal (IP), subcutaneous (SC), or oral (PO), at a suitable dose level and frequency (e.g. twice per day BID or thrice per day TID) as informed by prior pharmacokinetic and tolerability studies. Following administration of the Cbl-b inhibitor, T-cells and indirectly other immune cells (e.g. via cytokine production) were stimulated in vivo by administration of an anti-CD3 antibody or antigen-binding fragment thereof in PBS at defined amounts such as 2 μg or 10 μg per animal by routes such as IV or IP (See Hirsh et al., J. Immunol., 1989; Ferran, et al., Eur. J. Immunol., 1990). Additional study control arms included groups of mice treated with a vehicle formulation alone (i.e., formulation without the Cbl-b inhibitor and anti-CD3 antibody), a formulation containing the Cbl-b inhibitor alone, a formulation containing the anti-CD3 antibody alone, PBS alone, or combinations of these agents. The level of immune activation was then assessed by analysis of plasma cytokine levels and/or expression of activation markers on immune cells (e.g. T-cells). Blood or lymphoid organs (e.g. spleen) were collected at defined time points (e.g. 8 hours or 24 hours). Blood samples were processed to collect plasma for determination of cytokine levels using standard methods known in the art. Cytokines measured included IL-2, IFNγ, and TNFα. Additional blood samples and lymphoid tissues were processed for flow cytometric analysis of immune cells (e.g. T-cells) using standard methods to determine expression of cell type-specific markers and activation markers such as CD25 and/or CD69. Augmentation of immune stimulation by Cbl-b inhibitor administration was assessed by comparing the relative concentrations of cytokines in plasma, or the expression levels of activation markers on immune cells between appropriate groups (e.g. mice treated with Cbl-b inhibitor and 2 μg anti-CD3 antibody versus mice treated with vehicle and 2 μg anti-CD3 antibody).
(§2) Cbl-b inhibitors were tested to determine their ability to induce or enhance the level of cytokines (e.g. IL-2, IFNγ, and TNFα) in blood obtained from treated mice stimulated with an anti-CD3 antibody, which is indicative of modulation of the immune response. Cbl-b inhibitors were also tested to determine their ability to induce or enhance the expression of cell surface markers on T-cells (e.g. CD25 and/or CD69) isolated from treated mice stimulated with an anti-CD3 antibody, which is indicative of modulation of the immune response.
(§3) Readouts were reported as fold change over baseline. The fold change was calculated from the mean value of mice treated with Cbl-b inhibitor and 2 μg anti-CD3 antibody, with the baseline defined as the mean value of mice treated with vehicle and 2 μg anti-CD3 antibody. Increases in the percentage of cells with surface expression of CD25 on CD4+ T-cells or CD8+ T-cells greater than 1.5-fold over baseline at 24 hours were considered a positive response. Increases in the plasma concentration of IL-2, IFNγ, and TNFα greater than 1.5-fold over baseline at 8 hours post-stimulation were also considered a positive response (Table 8). Fold changes were ranked into bins according to their readouts as follows: A indicates >2.50, B indicates 2.01-2.50, C indicates 1.51-2.00, D indicates 1.00-1.50, and E indicates <1.00.

[1] = tested on: IL-2, IFNγ, and TNFα in plasma; assay: In vivo activity: plasma cytokine levels (IL-2, IFNγ, TNFα) in mice stimulated with anti-CD3 antibody; settings: 2 μg anti-CD3 antibody, 8 hours post-stimulation
Protocol: as §1, §2, §3

Compound	CD69 MFI AUC (primary human B cells)	CD4+ T-cell % CD25+ (T-cells; 90 mpk IP BID)	CD8+ T-cell % CD25+ (T-cells; 90 mpk IP BID)	CD4+ T-cell % CD25+ (T-cells; 90 mpk IP TID)	CD8+ T-cell % CD25+ (T-cells; 90 mpk IP TID)	IFNγ plasma concentration ([1]; 90 mpk IP BID)	IL-2 plasma concentration ([1]; 90 mpk IP BID)	TNFα plasma concentration ([1]; 90 mpk IP BID)	IFNγ plasma concentration ([1]; 90 mpk IP TID)	IL-2 plasma concentration ([1]; 90 mpk IP TID)	TNFα plasma concentration ([1]; 90 mpk IP TID)
C[C@H](Sc1nncn1C)c1cccc(NC(=O)c2cccc(C(F)(F)F)n2)c1 [Compound 57a, (S)-N-(3-(1-((4-methyl-4H-1,2,4-triazol-3-yl)thio)ethyl)phenyl)-6-(trifluoromethyl)picolinamide]	B (B indicates 0.5-1.00)	D (D indicates 1.00-1.50)	E (E indicates <1.00)	D (D indicates 1.00-1.50)	C (C indicates 1.51-2.00)	D (D indicates 1.00-1.50)	A (A indicates >2.50)	A (A indicates >2.50)	B (B indicates 2.01-2.50)	A (A indicates >2.50)	A (A indicates >2.50)
C[C@@H](Sc1nncn1C)c1cccc(NC(=O)c2cccc(C(F)(F)F)n2)c1 [Compound 57b, (R)-N-(3-(1-((4-methyl-4H-1,2,4-triazol-3-yl)thio)ethyl)phenyl)-6-(trifluoromethyl)picolinamide]	A (A indicates ≤0.5)	C (C indicates 1.51-2.00)	E (E indicates <1.00)	E (E indicates <1.00)	D (D indicates 1.00-1.50)	E (E indicates <1.00)	E (E indicates <1.00)	D (D indicates 1.00-1.50)	E (E indicates <1.00)	E (E indicates <1.00)	E (E indicates <1.00)
